The results in this text go back to patent publication US20120264735A1 (priority 2009, published 2012).

T1 sequence (P08581 25-1390): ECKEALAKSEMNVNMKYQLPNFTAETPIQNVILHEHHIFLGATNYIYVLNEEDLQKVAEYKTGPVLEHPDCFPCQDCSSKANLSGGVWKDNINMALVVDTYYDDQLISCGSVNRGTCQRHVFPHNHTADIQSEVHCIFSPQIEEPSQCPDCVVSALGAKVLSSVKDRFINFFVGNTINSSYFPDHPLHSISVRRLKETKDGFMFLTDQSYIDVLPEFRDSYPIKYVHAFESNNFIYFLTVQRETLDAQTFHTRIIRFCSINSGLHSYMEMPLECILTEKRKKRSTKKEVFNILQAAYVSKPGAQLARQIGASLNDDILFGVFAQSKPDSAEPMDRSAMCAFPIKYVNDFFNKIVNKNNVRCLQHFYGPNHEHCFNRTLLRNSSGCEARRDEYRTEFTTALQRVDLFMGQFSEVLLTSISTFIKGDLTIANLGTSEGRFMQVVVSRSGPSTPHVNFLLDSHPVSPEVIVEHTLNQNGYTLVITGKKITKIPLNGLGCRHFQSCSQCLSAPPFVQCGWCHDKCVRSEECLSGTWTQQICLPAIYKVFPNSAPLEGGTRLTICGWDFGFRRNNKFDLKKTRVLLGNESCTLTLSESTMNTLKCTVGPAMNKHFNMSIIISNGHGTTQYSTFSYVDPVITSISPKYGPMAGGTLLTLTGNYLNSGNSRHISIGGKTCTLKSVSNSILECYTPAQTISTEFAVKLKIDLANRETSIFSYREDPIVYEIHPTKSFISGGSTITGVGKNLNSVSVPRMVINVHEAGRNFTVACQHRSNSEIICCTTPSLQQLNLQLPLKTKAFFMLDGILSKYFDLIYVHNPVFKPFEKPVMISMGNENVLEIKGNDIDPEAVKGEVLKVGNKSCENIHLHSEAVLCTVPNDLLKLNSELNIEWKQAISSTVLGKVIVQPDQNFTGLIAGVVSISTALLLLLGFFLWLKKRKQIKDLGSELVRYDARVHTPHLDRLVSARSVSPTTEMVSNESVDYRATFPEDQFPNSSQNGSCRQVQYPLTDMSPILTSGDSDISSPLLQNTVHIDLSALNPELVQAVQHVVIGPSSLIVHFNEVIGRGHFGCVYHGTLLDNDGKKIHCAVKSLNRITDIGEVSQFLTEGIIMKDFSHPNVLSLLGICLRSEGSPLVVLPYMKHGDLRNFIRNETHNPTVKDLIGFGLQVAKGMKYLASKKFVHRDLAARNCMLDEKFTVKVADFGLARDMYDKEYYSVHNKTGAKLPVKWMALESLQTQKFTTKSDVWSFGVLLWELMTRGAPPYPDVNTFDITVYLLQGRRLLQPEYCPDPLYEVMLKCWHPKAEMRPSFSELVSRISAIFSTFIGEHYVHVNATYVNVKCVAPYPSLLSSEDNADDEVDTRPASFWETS

The experiment has as its target T1, c-Met kinase (recombinant c-Met) (Homo sapiens, UniProt P08581).
T1 construct: 0.27 nM recombinant c-Met
The experiment in a line: In vitro kinase assay I (homogeneous time-resolved fluorescence tyrosine kinase assay). The experiment is classed as biochemical. In a few lines: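 Biotinylated peptide (0.5 μM) phosphorylated by 0.2 nM recombinant c-Met with 50 μM MgATP, 60 min at room temperature, pH 7.4, 5% DMSO. EDTA stop; HTRF read with Eu-anti-phosphotyrosine antibody and streptavidin-APC. IC50 from 4-parameter logistic fit.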
Broadly, the IC50 is the midpoint of a concentration-inhibition curve. For the compound `CCOc1cnc(-c2cccc(Sc3nn(-c4cnn(C)c4)ccc3=O)c2)nc1` [Example 756, 3-{[3-(5-Ethoxypyrimidin-2-yl)phenyl]sulfanyl}-1-(1-methyl-1H-pyrazol-4-yl)pyridazin-4(1H)-one], the 50% inhibitory concentration (IC50) was in the range of 1000 to 3000 nM.
On to `O=C(Nc1cccc(Cc2nn(-c3cc(F)c(F)c(F)c3)ccc2=O)c1)OCCCN1CCCC1` [Example 554, 3-pyrrolidin-1-ylpropyl (3-{[4-oxo-1-(3,4,5-trifluorophenyl)-1,4-dihydropyridazin-3-yl]methyl}phenyl)carbamate], for which the half-inhibitory concentration (IC50) is below 100 nM.
Next, `CCc1nc(-c2cccc(Cc3nn(-c4cnn(C)c4)ccc3=O)c2)no1` [Example 739, 3-[3-(5-Ethyl-1,2,4-oxadiazole-3-yl)benzyl]-1-(1-methyl-1H-pyrazol-4-yl)pyridazin-4(1H)-one]: below 100 nM; `CCOc1cnc(-c2cccc(Cc3nn(-c4cnn(C5CCNCC5)c4)ccc3=O)c2)nc1` [Example 664, 3-[3-(5-ethoxypyrimidin-2-yl)benzyl]-1-(1-piperidin-4-yl-1H-pyrazol-4-yl)pyridazin-4(1H)-one]: below 100 nM.
`Cn1cc(-n2ccc(=O)c(Cc3cccc(-c4ncc(-c5ccn(C)n5)cn4)c3)n2)cn1` [Example 421, 1-(1-methyl-1H-pyrazol-4-yl)-3-{3-[5-(1-melhyl-1H-pyrazol-3-yl)pyrimidin-2-yl]benzyl}pyridazin-4(1H)-one]: the IC50 is below 100 nM.
Take `[2H]C([2H])([2H])C([2H])([2H])Oc1cnc(-c2cccc(Cc3nn(-c4cnn(C)c4)ccc3=O)c2)nc1` [Example 275, 3-[3-(5-ethoxypyrimidin-2-yl)benzyl]-1-(1-methyl-1H-pyrazol-4-yl)pyridazin-4(1H)-one-d5]: the 50% inhibitory concentration (IC50) was below 100 nM.
Consider `CN(C)C(=O)CCOC(=O)Nc1cccc(Cc2nn(-c3cccc(C#N)c3)ccc2=O)c1` [Example 588, 3-(dimethylamino)-3-oxopropyl (3-{[1-(3-cyanophenyl)-4-oxo-1,4-dihydropyridazin-3-yl]methyl}phenyl)carbamate], for which the IC50 was below 100 nM.
As for `COCCN1CCC(COC(=O)Nc2cccc(Cc3nn(-c4cc(F)cc(F)c4)ccc3=O)c2)C1` (racemic) [Example 594, rac-[1-(2-methoxyethyl)pyrrolidin-3-yl]methyl-(3-{[1-(3,5-difluorophenyl)-4-oxo-1,4-dihydropyridazin-3-yl]methyl}phenyl)carbamate], the 50% inhibitory concentration (IC50) was below 100 nM.
Next, `Cn1cc(-n2ccc(=O)c(Cc3cccc(-c4ncc(CCc5ccccc5)cn4)c3)n2)cn1` [Example 397, 1-(1-methyl-1H-pyrazol-4-yl)-3-{3-[5-(2-phenylethyl)pyrimidin-2-yl]benzyl}pyridazin-4(1H)-one]: below 100 nM; `O=c1ccn(-c2cc(F)cc(F)c2)nc1Cc1cccc(-c2ncc(OCc3ccccc3)cn2)c1` [Example 125, 3-{3-[5-(benzyloxy)pyrimidin-2-yl]benzyl}-1-(3,5-difluorophenyl)pyridazin-4(1H)-one]: below 100 nM.
Next, `CCCn1cc(-n2ccc(=O)c(Cc3cccc(-c4ncc(OC)cn4)c3)n2)cn1` [Example 114, 3-[3-(5-methoxypyrimidin-2-yl)benzyl]-1-(1-propyl-1H-pyrazol-4-yl)pyridazin-4(1H)-one]: below 100 nM; `Cn1cc(-n2ccc(=O)c(Cc3cccc(-c4ncc(OCc5ncn(C)n5)cn4)c3)n2)cn1` [Example 356, 1-(1-methyl-1H-pyrazol-4-yl)-3-(3-{5-[(1-methyl-1H-1,2,4-triazol-3-yl)methoxy]pyrimidin-2-yl}benzyl)pyridazin-4(1H)-one]: below 100 nM; `CC(c1cccc(-c2ncn(C)n2)c1)c1nn(-c2cnn(C)c2)ccc1=O` (single isomer, unassigned) [Example 683, 1-(1-methyl-1H-pyrazol-4-yl)-3-{(1R or S)-1-[3-(1-methyl-1H-1,2,4-triazol-3-yl)phenyl]ethyl} pyridazin-4(1H)-one]: below 100 nM.
Regarding `CCn1cc(-n2ccc(=O)c(C(C)c3cccc(-c4ncc(OCC(F)F)cn4)c3)n2)cn1` (single isomer, unassigned) [Example 294, 3-[(1R or S)-1-{3-[5-(2,2-difluoroethoxy)pyrimidin-2-yl]phenyl}ethyl]-1-(1-ethyl-1H-pyrazol-4-yl)pyridazin-4(1H)-one], the 50% inhibitory concentration (IC50) is below 100 nM.
As to `COCCOc1ccnc(-c2cccc(C(C)c3nn(-c4cnn(C)c4)ccc3=O)c2)n1` (racemic) [Example 679, rac-3-(1-{3-[4-(2-methoxyethoxy)pyrimidin-2-yl]phenyl}ethyl)-1-(1-methyl-1H-pyrazol-4-yl)pyridazin-4(1H)-one], the half-inhibitory concentration (IC50) lay within 100 to 1000 nM.
Turning to `O=C(Nc1cccc(Cc2nn(-c3cc(F)cc(F)c3)ccc2=O)c1)OCC1COCCO1` (racemic) [Example 520, rac-1,4-dioxan-2-ylmethyl (3-{[1-(3,5-difluorophenyl)-4-oxo-1,4-dihydropyridazin-3-yl]methyl}phenyl)carbamate], the IC50 was below 100 nM.
As to `N#Cc1cccc(-n2ccc(=O)c(Cc3cccc(NC(=O)OCCN4CCOCC4=O)c3)n2)c1` [Example 584, 2-(3-oxomorpholin-4-yl)ethyl (3-{[1-(3-cyanophenyl)-4-oxo-1,4-dihydropyridazin-3-yl]methyl}phenyl)carbamate], the IC50 is below 100 nM.
On to `CC(C)(O)COc1cnc(-c2cccc(Cc3nn(-c4cccc(C#N)c4)ccc3=O)c2)nc1` [Example 361, 3-[3-{3-[5-(2-hydroxy-2-methylpropoxy)pyrimidin-2-yl]benzyl}-4-oxopyridazin-1(4H)-yl]benzonitrile], for which the IC50 is below 100 nM.
Regarding `CC(C)CNC(=O)Nc1cccc(Cc2nn(-c3cnn(C)c3)ccc2=O)c1` [Example 491, 1-(2-methylpropyl)-3-(3-{[1-(1-methyl-1H-pyrazol-4-yl)-4-oxo-1,4-dihydropyridazin-3-yl]methyl}phenyl)urea], the IC50 was below 100 nM.
Consider `CCC(COC(=O)Nc1cccc(Cc2nn(-c3cccc(C#N)c3)ccc2=O)c1)OC` (racemic) [Example 581, rac-2-methoxybutyl (3-{[1-(3-cyanophenyl)-4-oxo-1,4-dihydropyridazin-3-yl]methyl}phenyl)carbamate], for which the IC50 is below 100 nM.
On to `CC(c1cccc(-c2ncn(C)n2)c1)c1nn(-c2cnn(C)c2)ccc1=O` (single isomer, unassigned) [Example 682, 1-(1-methyl-1H-pyrazol-4-yl)-3-{(1S or R)-1-[3-(1-methyl-1H-1,2,4-triazol-3-yl)phenyl]ethyl} pyridazin-4(1H)-one], for which the IC50 is 1000 to 3000 nM.
Consider `Cc1cnccc1-c1cnc(-c2cccc(Cc3nn(-c4cnn(C)c4)ccc3=O)c2)nc1` [Example 416, 1-(1-methyl-1H-pyrazol-4-yl)-3-{3-[5-(3-methylpyridin-4-yl)pyrimidin-2-yl]benzyl}pyridazin-4(1H)-one], for which the IC50 is below 100 nM.
For the compound `COc1cnc(-c2cccc(Cc3nn(-c4cc(Cl)cc(C#N)c4)ccc3=O)c2)nc1` [Example 126, 3-chloro-5-{3-[3-(5-methoxypyrimidin-2-yl)benzyl]-4-oxopyridazin-1(4H)-yl}benzonitrile], the concentration for half-maximal inhibition (IC50) is below 100 nM.
For the compound `CCc1cnc(-c2cccc(Cc3nn(-c4ccc(F)c(F)c4)ccc3=O)c2)nc1` [Example 407, 1-(3,4-difluorophenyl)-3-[3-(5-ethylpyrimidin-2-yl)benzyl]pyridazin-4(1H)-one], the IC50 is below 100 nM.
Consider `COCCOC(=O)Nc1cccc(Cc2nn(-c3cc(F)c(F)c(F)c3)ccc2=O)c1` [Example 503, 2-methoxyethyl (3-{[4-oxo-1-(3,4,5-trifluorophenyl)-1,4-dihydropyridazin-3-yl]methyl}phenyl)carbamate], for which the concentration for half-maximal inhibition (IC50) is below 100 nM.
Turning to `CCOc1cnc(-c2cccc(Cc3nn(-c4cnn(C)c4)ccc3=O)c2F)nc1` [Example 121, 3-[3-(5-ethoxypyrimidin-2-yl)-2-fluorobenzyl]-1-(1-methyl-1H-pyrazol-4-yl)pyridazin-4(1H)-one], the concentration for half-maximal inhibition (IC50) fell in the range of 100 to 1000 nM.
Regarding `CCn1cc(-n2ccc(=O)c(C(C)c3cccc(-c4ncc(OC)cn4)c3)n2)cn1` (single isomer, unassigned) [Example 332, 1-(1-ethyl-1H-pyrazol-4-yl)-3-{(1S or R)-1-[3-(5-methoxypyrimidin-2-yl)phenyl]ethyl}pyridazin-4(1H)-one], the IC50 was in the range of 100 to 1000 nM.
In the case of `Cn1cc(-n2ccc(=O)c(Cc3cccc(NC(=O)OC[C@@H]4CCCN4)c3)n2)cn1` [Example 616, (2S)-pyrrolidin-2-ylmethyl (3-{[1-(1-methyl-1H-pyrazol-4-yl)-4-oxo-1,4-dihydropyridazin-3-yl]methyl}phenyl)carbamate], the concentration for half-maximal inhibition (IC50) was in the range of 100 to 1000 nM.
With `CCn1cnc(-c2cccc(Cc3nn(-c4ccc(F)c(F)c4)ccc3=O)c2)n1` [Example 82, 1-(3,4-difluorophenyl)-3-[3-(1-ethyl-1H-1,2,4-triazol-3-yl)benzyl]pyridazin-4(1H)-one], the 50% inhibitory concentration (IC50) is below 100 nM.
For the compound `Cn1cc(-n2ccc(=O)c(Cc3cccc(-c4ncc(O[C@H]5CC[C@H](O)CC5)cn4)c3)n2)cn1` [Example 747, 3-(3-{5-[(trans-4-hydroxycyclohexyl)oxy]pyrimidin-2-yl}benzyl)-1-(1-methyl-1H-pyrazol-4-yl)pyridazin-4(1H)-one], the concentration for half-maximal inhibition (IC50) was below 100 nM.
For `CCNC(=O)c1cnc(-c2cccc(Cc3nn(-c4cnn(C)c4)ccc3=O)c2)nc1` [Example 484, N-ethyl-2-(3-{[1-(1-methyl-1H-pyrazol-4-yl)-4-oxo-1,4-dihydro-pyridazin-3-yl]methyl}phenyl)pyrimidine-5-carboxamide], the half-inhibitory concentration (IC50) was below 100 nM.
Turning to `COC(=O)c1cnc(-c2cccc(Cc3nn(-c4cnn(C)c4)ccc3=O)c2)nc1` [Example 15, methyl 2-(3-{[1-(1-methyl-1H-pyrazol-4-yl)-4-oxo-1,4-dihydropyridazin-3-yl]methyl}phenyl)pyrimidine-5-carboxylate], the half-inhibitory concentration (IC50) was below 100 nM.
As for `CC(C)COC(=O)Nc1cccc(Cc2nn(-c3cnn(C4CCOC4)c3)ccc2=O)c1` (racemic) [Example 99, rac-2-methylpropyl [3-({4-oxo-1-[1-(tetrahydrofuran-3-yl)-1H-pyrazol-4-yl]-1,4-dihydropyridazin-3-yl}methyl)phenyl]carbamate], the half-inhibitory concentration (IC50) was below 100 nM.
